Consider 17 molecules from US20240383905A1, “FGFR INHIBITORS AND METHODS OF USE THEREOF” (3H PHARMACEUTICALS CO., LTD., priority 2021, published 2024).

The structures appear in SMILES notation. Where only a bound is given, the exact number is not on record here.

One assay deals with T1, FGFR2 (Homo sapiens, UniProt P21802).
T1 construct: purchased Carna 08-134
The experiment in a line: FGFR2 Biochemical Caliper Assay (KinEASE-TK kit). As to conditions: 0.07 nM FGFR2; compound incubated with protein 10 min, reaction 45 min at RT; read-out: FGFR2 Cliper IC50.

Another assay deals with T2, FGFR1 (Homo sapiens, UniProt P11362).
T2 construct: purchased Carna 08-133
As to the kind of experiment: FGFR1 Biochemical Caliper Assay (KinEASE-TK kit). As to conditions: ratio FGFR1/FGFR2 of the biochemical assay. An outline of the steps: (§1)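 KinEASE-TK HTRF readout: enzyme at 0.2 nM (FGFR1, FGFR3) preincubated 10 min at RT with 10-point 3-fold compound dilutions before TK-substrate/ATP start.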

The next assay addresses T3, FGFR3 (Homo sapiens, UniProt P22607).
T3 construct: purchased Carna 08-135
The experiment in a line: FGFR3 Biochemical Caliper Assay (KinEASE-TK kit). As to conditions: ratio FGFR3/FGFR2 of the biochemical assay. An outline of the steps:
as §1

In another assay the test system is SNU16 cells. As to the kind of experiment: SNU16 Cancer Cell Line Proliferation Assay (CellTiter-Glo). It is filed as cell-based. As to conditions: Homo sapiens, SNU-16, 72 h. An outline of the steps: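 SNU16 cells at 5000/well exposed to 9-point 3-fold serial compound dilutions (DMSO control) for 72 h at 37 °C, 5% CO2. Viability read by luminescence; IC50 calculated from dose-response.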
On the technique in general: ATP-based viability assays read luminescence as a measure of living cells.

T2 sequence (P11362 22-822): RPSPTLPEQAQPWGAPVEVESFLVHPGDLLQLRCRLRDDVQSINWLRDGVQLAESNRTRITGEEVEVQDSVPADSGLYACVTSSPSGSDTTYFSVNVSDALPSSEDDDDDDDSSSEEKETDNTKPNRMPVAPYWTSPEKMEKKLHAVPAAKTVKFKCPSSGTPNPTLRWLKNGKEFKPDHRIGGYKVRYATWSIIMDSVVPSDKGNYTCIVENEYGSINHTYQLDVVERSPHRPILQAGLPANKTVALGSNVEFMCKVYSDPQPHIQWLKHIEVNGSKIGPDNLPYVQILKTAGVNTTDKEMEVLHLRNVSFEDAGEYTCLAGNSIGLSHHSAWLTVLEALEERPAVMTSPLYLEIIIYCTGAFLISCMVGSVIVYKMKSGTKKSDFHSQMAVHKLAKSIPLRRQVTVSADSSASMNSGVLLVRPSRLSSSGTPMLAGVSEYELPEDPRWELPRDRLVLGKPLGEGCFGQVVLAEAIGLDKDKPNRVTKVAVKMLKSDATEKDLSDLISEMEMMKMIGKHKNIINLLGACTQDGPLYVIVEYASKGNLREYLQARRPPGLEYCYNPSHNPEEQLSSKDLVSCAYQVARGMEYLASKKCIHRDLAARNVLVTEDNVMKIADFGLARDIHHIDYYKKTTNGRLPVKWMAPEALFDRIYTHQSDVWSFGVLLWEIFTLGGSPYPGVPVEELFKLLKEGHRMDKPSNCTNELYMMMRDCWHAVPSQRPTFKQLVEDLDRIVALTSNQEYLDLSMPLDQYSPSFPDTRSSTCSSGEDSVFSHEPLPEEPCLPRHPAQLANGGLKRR
T1 sequence (P21802 22-821): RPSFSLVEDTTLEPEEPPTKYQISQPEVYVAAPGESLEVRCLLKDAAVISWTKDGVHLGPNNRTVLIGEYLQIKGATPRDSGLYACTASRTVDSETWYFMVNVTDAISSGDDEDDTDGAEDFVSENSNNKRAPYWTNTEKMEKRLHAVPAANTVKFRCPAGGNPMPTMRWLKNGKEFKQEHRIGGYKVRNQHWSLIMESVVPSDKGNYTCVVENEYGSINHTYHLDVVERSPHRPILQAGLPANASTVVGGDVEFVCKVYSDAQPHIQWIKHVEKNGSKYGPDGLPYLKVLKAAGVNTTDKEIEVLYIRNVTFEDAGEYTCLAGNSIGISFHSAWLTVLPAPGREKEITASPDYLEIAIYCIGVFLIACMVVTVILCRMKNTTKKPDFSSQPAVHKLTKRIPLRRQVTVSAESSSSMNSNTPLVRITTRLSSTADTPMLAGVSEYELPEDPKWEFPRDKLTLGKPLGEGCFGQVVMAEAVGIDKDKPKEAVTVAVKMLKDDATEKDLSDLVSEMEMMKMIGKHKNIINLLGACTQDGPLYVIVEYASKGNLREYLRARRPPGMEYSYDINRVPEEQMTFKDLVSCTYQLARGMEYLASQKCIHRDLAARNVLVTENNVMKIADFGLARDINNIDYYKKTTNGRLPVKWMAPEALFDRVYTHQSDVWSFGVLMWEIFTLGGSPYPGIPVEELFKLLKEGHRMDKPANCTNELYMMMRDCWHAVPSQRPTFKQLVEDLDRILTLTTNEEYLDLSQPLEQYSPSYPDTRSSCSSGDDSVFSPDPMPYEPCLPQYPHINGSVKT
T3 sequence (P22607 23-806): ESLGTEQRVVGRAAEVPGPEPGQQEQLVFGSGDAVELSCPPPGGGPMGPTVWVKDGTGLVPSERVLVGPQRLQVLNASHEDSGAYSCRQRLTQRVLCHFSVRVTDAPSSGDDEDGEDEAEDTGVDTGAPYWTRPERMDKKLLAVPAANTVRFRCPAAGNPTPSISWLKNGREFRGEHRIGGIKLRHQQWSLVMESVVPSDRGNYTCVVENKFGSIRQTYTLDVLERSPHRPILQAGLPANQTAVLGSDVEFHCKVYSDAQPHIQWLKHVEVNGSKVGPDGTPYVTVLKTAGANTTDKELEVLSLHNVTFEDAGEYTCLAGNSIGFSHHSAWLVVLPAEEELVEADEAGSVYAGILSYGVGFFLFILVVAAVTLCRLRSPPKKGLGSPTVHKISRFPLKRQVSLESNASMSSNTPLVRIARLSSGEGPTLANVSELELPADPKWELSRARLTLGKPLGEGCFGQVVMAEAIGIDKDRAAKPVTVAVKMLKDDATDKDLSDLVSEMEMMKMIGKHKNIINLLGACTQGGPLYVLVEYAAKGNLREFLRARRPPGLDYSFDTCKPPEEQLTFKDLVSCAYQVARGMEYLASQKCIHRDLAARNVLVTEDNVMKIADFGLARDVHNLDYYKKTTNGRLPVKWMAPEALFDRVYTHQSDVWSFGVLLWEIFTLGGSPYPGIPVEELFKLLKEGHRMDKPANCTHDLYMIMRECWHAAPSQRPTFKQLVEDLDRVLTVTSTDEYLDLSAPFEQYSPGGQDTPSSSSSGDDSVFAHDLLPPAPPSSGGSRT

As to `C=CC(=O)Nc1ccc(-c2nn3ncnc(N)c3c2-c2ccc(C(=O)NCC(C)(C)OC)c(OC)c2)cc1` [Compound 56, 4-(6-(4-acrylamidophenyl)-4-aminopyrazolo[5,1-f] [1,2,4]triazin-5-yl)-2-methoxy-N-(2-methoxy-2-methylpropyl)benzamide], the IC50 is 5 to 10 nM at FGFR2 and no more than 10 nM in the assay with SNU16 cells. Besides, the “Selectivity FGFR1/FGFR2” value at FGFR1 was “A+ (Selectivity of FGFR1/FGFR2 greater or equal to 500)”. In addition, the “Selectivity FGFR3/FGFR2” value on FGFR3 is listed as “A (Selectivity of FGFR3/FGFR2 less than 150 but greater than or equal to 100)”.
`C=CC(=O)Nc1ccc(-c2nn3ncnc(N)c3c2-c2ccc(OC3CCCCC3)cc2)cc1` [Compound 228, N-(4-(4-amino-5-(4-(cyclohexyloxy)phenyl)pyrazolo[5,1-f][1,2,4]triazin-6-yl)phenyl)acrylamide]: the results for the IC50 at FGFR2 and with SNU16 cells were 5 to 10 nM and no more than 10 nM, respectively. Also, the “Selectivity FGFR1/FGFR2” value at FGFR1 is on record as “A+ (Selectivity of FGFR1/FGFR2 greater or equal to 500)”. Further, the “Selectivity FGFR3/FGFR2” value at FGFR3 is recorded as “A+ (Selectivity of FGFR3/FGFR2 greater or equal to 150)”.
`C=C(C)C(=O)Nc1ccc(-c2nn3ncnc(N)c3c2-c2ccc(Oc3nccc(C)n3)c(F)c2)c(Cl)c1` [Compound 451]: the IC50 on FGFR2 was less than 5 nM; with SNU16 cells, no more than 10 nM. At FGFR1, the “Selectivity FGFR1/FGFR2” value was “A (Selectivity of FGFR1/FGFR2 less than 500 but greater than or equal to 300)”. Moreover, the “Selectivity FGFR3/FGFR2” value on FGFR3 is “B (Selectivity of FGFR3/FGFR2 less than 100 but greater than or equal to 25)”.
Take `C=CC(=O)Nc1ccc(-c2c(-c3ccc(Oc4nccc(C)n4)c(OC)c3)c3c(N)ncc(C(N)=O)c3n2C)cc1` [Compound 21, 2-(4-acrylamidophenyl)-4-amino-3-(3-methoxy-4-((4-methylpyrimidin-2-yl)oxy)phenyl)-1-methyl-1H-pyrrolo[3,2-c]pyridine-7-carboxamide]: the IC50 at FGFR2 was less than 5 nM; with SNU16 cells, greater than 50 nM. Moreover, the “Selectivity FGFR1/FGFR2” value on FGFR1 is “A+ (Selectivity of FGFR1/FGFR2 greater or equal to 500)”. The “Selectivity FGFR3/FGFR2” value at FGFR3 is “A (Selectivity of FGFR3/FGFR2 less than 150 but greater than or equal to 100)”.
On to `C=CC(=O)Nc1ccc(-c2nn3ncnc(N)c3c2-c2ccc(C(=O)NCC(F)(F)F)c(OC)c2)cc1` [Compound 42, 4-(6-(4-acrylamidophenyl)-4-aminopyrazolo[5,1-f] [1,2,4]triazin-5-yl)-2-methoxy-N-(2,2,2-trifluoroethyl)benzamide], for which the IC50 was less than 5 nM on FGFR2 and no more than 10 nM in the assay with SNU16 cells. Moreover, on FGFR1, the “Selectivity FGFR1/FGFR2” value is given as “A (Selectivity of FGFR1/FGFR2 less than 500 but greater than or equal to 300)”. The “Selectivity FGFR3/FGFR2” value on FGFR3 is on record as “A (Selectivity of FGFR3/FGFR2 less than 150 but greater than or equal to 100)”.
For `C=C(C)C(=O)Nc1ccc(-c2c(-c3ccc(Oc4nccc(C)n4)cc3)c3c(N)ncc(C#N)c3n2C)c(Cl)c1` [Compound 474, N-(4-(4-amino-7-cyano-1-methyl-3-(4-((4-methylpyrimidin-2-yl)oxy)phenyl)-1H-pyrrolo[3,2-c]pyridin-2-yl)-3-chlorophenyl)methacrylamide], the figures for the IC50 on FGFR2 and in the assay on SNU16 cells were 5 to 10 nM and no more than 10 nM, respectively. Besides, the “Selectivity FGFR1/FGFR2” value on FGFR1 is recorded as “A+ (Selectivity of FGFR1/FGFR2 greater or equal to 500)”. For the same molecule, the “Selectivity FGFR3/FGFR2” value on FGFR3 is given as “A+ (Selectivity of FGFR3/FGFR2 greater or equal to 150)”.
As for `C=C(F)C(=O)Nc1ccc(-c2c(-c3ccc(C(=O)NC4CC4)c(OC)c3)c3c(N)ncc(C#N)c3n2C)c(OC)c1` [Compound 171, 4-(4-amino-7-cyano-2-(4-(2-fluoroacrylamido)-2-methoxyphenyl)-1-methyl-1H-pyrrolo[3,2-c]pyridin-3-yl)-N-cyclopropyl-2-methoxybenzamide], the IC50 at FGFR2 is less than 5 nM; in the assay with SNU16 cells it was no more than 10 nM. Moreover, the “Selectivity FGFR1/FGFR2” value at FGFR1 is “C (Selectivity of FGFR1/FGFR2 less than 200 but greater than or equal to 100)”. The “Selectivity FGFR3/FGFR2” value at FGFR3 was “B (Selectivity of FGFR3/FGFR2 less than 100 but greater than or equal to 25)”.
As to `C=CC(=O)Nc1ccc(-c2nn3ncnc(N)c3c2-c2ccc(C(=O)NC3CCCC3)c(OC)c2)cc1` [Compound 55, 4-(6-(4-acrylamidophenyl)-4-aminopyrazolo[5,1-f] [1,2,4]triazin-5-yl)-N-cyclopentyl-2-methoxybenzamide], the IC50 on FGFR2 is less than 5 nM; in the assay on SNU16 cells, no more than 10 nM. The “Selectivity FGFR1/FGFR2” value on FGFR1 is recorded as “A+ (Selectivity of FGFR1/FGFR2 greater or equal to 500)”. The “Selectivity FGFR3/FGFR2” value on FGFR3 was “A (Selectivity of FGFR3/FGFR2 less than 150 but greater than or equal to 100)”.
On to `C=CC(=O)Nc1ccc(-c2nn3ncnc(N)c3c2-c2ccc(NC(=O)C3CC3(F)F)c(OC)c2)cc1` (centres unmarked) [Compound 339, N-(4-(6-(4-acrylamidophenyl)-4-aminopyrazolo[5,1-f][1,2,4]triazin-5-yl)-2-methoxyphenyl)-2,2-difluorocyclopropane-1-carboxamide], for which the values for the IC50 at FGFR2 and with SNU16 cells were greater than 10 nM and no more than 10 nM, respectively. Further, the “Selectivity FGFR1/FGFR2” value at FGFR1 is “C (Selectivity of FGFR1/FGFR2 less than 200 but greater than or equal to 100)”. For the same molecule, on FGFR3, the “Selectivity FGFR3/FGFR2” value is “B (Selectivity of FGFR3/FGFR2 less than 100 but greater than or equal to 25)”.
For the molecule `C=CC(=O)Nc1ccc(-c2c(-c3ccc(C(=O)NCCF)c(OC)c3)c3c(N)ncc(C#N)c3n2C)cc1` [Compound 189, 4-(2-(4-acrylamidophenyl)-4-amino-7-cyano-1-methyl-1H-pyrrolo[3,2-c]pyridin-3-yl)-N-(2-fluoroethyl)-2-methoxybenzamide], the IC50 was less than 5 nM on FGFR2 and no more than 10 nM with SNU16 cells. In addition, at FGFR1, the “Selectivity FGFR1/FGFR2” value was “B (Selectivity of FGFR1/FGFR2 less than 300 but greater than or equal to 200)”. In addition, at FGFR3, the “Selectivity FGFR3/FGFR2” value is on record as “B (Selectivity of FGFR3/FGFR2 less than 100 but greater than or equal to 25)”.
Taken in the same sequence, the figures for `C=C(F)C(=O)Nc1ccc(-c2nn3ncnc(N)c3c2-c2ccc(C(=O)NCC3(C(F)(F)F)CC3)c(OC)c2)c(F)c1` [Compound 361] were less than 5 nM, no more than 10 nM, “A (Selectivity of FGFR1/FGFR2 less than 500 but greater than or equal to 300)” and “A (Selectivity of FGFR3/FGFR2 less than 150 but greater than or equal to 100)”.
The corresponding values for `C=C(F)C(=O)Nc1ccc(-n2nc3c(=O)[nH]nc(N)c3c2-c2ccc(C(=O)NC3CCC3)c(OC)c2)cc1` [Compound 137, 4-(4-amino-2-(4-(2-fluoroacrylamido)phe-nyl)-7-oxo-6,7-dihydro-2H-pyrazolo[3,4-d]pyridazin-3-yl)-N-cyclobutyl-2-methoxybenzamide] are 5 to 10 nM, 10 to 50 nM, “A+ (Selectivity of FGFR1/FGFR2 greater or equal to 500)” and “A+ (Selectivity of FGFR3/FGFR2 greater or equal to 150)”.
As to `C=C(F)C(=O)Nc1ccc(-c2nn3ncnc(N)c3c2-c2ccc(C(=O)NC3CCC3)c(OC)c2)cc1` [Compound 95, 4-(4-amino-6-(4-(2-fluoroacrylamido)phe-nyl)pyrazolo[5,1-f][1,2,4]triazin-5-yl)-N-cyclobutyl-2-methoxybenzamide], the IC50 at FGFR2 was greater than 10 nM; in the assay on SNU16 cells, no more than 10 nM. In addition, the “Selectivity FGFR1/FGFR2” value at FGFR1 is given as “A+ (Selectivity of FGFR1/FGFR2 greater or equal to 500)”. Also, the “Selectivity FGFR3/FGFR2” value on FGFR3 was “A+ (Selectivity of FGFR3/FGFR2 greater or equal to 150)”.
Taken in the same sequence, the figures for `C=CC(=O)Nc1ccc(-c2nn3ncnc(N)c3c2-c2ccc(C(=O)NCC(F)(F)F)c(OC)c2)c(OC)c1` [Compound 85, 4-(6-(4-acrylamido-2-methoxyphenyl)-4-aminopyrazolo[5,1-f] [1,2,4]triazin-5-yl)-2-methoxy-N-(2,2,2-trifluoroethyl)benzamide] were less than 5 nM, no more than 10 nM, “A+ (Selectivity of FGFR1/FGFR2 greater or equal to 500)” and “A+ (Selectivity of FGFR3/FGFR2 greater or equal to 150)”.
Regarding `C=CC(=O)Nc1ccc(-c2nn3ncnc(N)c3c2-c2ccc(Oc3nccc(N)n3)c(F)c2)cc1` [Compound 428], the IC50 was greater than 10 nM on FGFR2 and 10 to 50 nM in the assay on SNU16 cells. Further, the “Selectivity FGFR1/FGFR2” value on FGFR1 is “A+ (Selectivity of FGFR1/FGFR2 greater or equal to 500)”. Also, the “Selectivity FGFR3/FGFR2” value at FGFR3 is “A+ (Selectivity of FGFR3/FGFR2 greater or equal to 150)”.
For `C=CC(=O)Nc1ccc(-c2c(-c3ccc(Oc4ncccn4)c(F)c3)c3c(N)ncc(C#N)c3n2C)cc1` [Compound 443, N-(4-(4-amino-7-cyano-3-(3-fluoro-4-(pyrimidin-2-yloxy)phenyl)-1-methyl-1H-pyrrolo[3,2-c]pyridin-2-yl)phenyl)acrylamide], the values for the IC50 at FGFR2 and in the assay with SNU16 cells were less than 5 nM and no more than 10 nM, respectively. In addition, the “Selectivity FGFR1/FGFR2” value at FGFR1 is “C (Selectivity of FGFR1/FGFR2 less than 200 but greater than or equal to 100)”. Also, the “Selectivity FGFR3/FGFR2” value on FGFR3 was “B (Selectivity of FGFR3/FGFR2 less than 100 but greater than or equal to 25)”.
`C=C(F)C(=O)Nc1ccc(-c2nn3ncnc(N)c3c2-c2ccc(C(=O)NC3CC3(F)F)c(OC)c2)c(F)c1` (centres unmarked) [Compound 271]: the results for the IC50 at FGFR2 and with SNU16 cells were less than 5 nM and no more than 10 nM, respectively. Further, the “Selectivity FGFR1/FGFR2” value on FGFR1 was “C (Selectivity of FGFR1/FGFR2 less than 200 but greater than or equal to 100)”. Further, at FGFR3, the “Selectivity FGFR3/FGFR2” value is recorded as “B (Selectivity of FGFR3/FGFR2 less than 100 but greater than or equal to 25)”.

The term IC50 denotes the concentration that inhibits the measured activity by half.
